# From patent publication US6737383B1, “Herbicidal oxadiazolidines” (priority 1999, dated 2004)
# What was measured:
# blackgrass = assay: Test B pre/postemergence blackgrass; type: in vivo, Alopecurus myosuroides
# In short: (§1)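 Response is a visual 0-to-10 score relative to untreated plants, where 0 means no effect and 10 means complete control, taken twelve to sixteen days after application. Treatments went onto soil at planting and onto foliage of 1- to 4-leaf plants, using a surfactant-containing non-phytotoxic solvent.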
# crabgrass = assay: Test B pre/postemergence crabgrass; type: in vivo, Digitaria sanguinalis
# In short: as §1
# wheat = assay: Test B pre/postemergence wheat; type: in vivo, Triticum aestivum
# In short: as §1
# bedstraw = assay: Test B pre/postemergence bedstraw; type: in vivo, Galium aparine
# In short: as §1
# corn = assay: Test B pre/postemergence corn; type: in vivo, Zea mays
# In short: as §1
# duck salad = assay: Test B flood test duck salad; type: in vivo, Heteranthera limosa
# In short: (§2)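 Flood test on plants grown to the 2-leaf stage; treated plants kept in greenhouse twelve to sixteen days, then visually rated against controls on a 0 (no effect) to 10 (complete control) scale.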
# surinam grass = assay: Test B pre/postemergence surinam grass; type: in vivo, Brachiaria decumbens
# In short: as §1
# smallflower flatsedge = assay: Test B flood test smallflower flatsedge; type: in vivo, Cyperus difformis
# In short: as §2
# bamyardgrass = assay: Test B flood test barnyardgrass; type: in vivo, Echinochloa crus-galli
# In short: as §2
# purple nutsedge = assay: Test B pre/postemergence purple nutsedge; type: in vivo, Cyperus rotundus
# In short: as §1
# velvetleaf = assay: Test B pre/postemergence velvetleaf; type: in vivo, Abutilon theophrasti
# In short: as §1
# sugar beet = assay: Test B pre/postemergence sugar beet; type: in vivo, Beta vulgaris
# In short: as §1
# rice = assay: Test B flood test rice; type: in vivo, Oryza sativa
# In short: as §2
# wild oat = assay: Test B pre/postemergence wild oat; type: in vivo, Avena fatua
# In short: as §1
# soybean = assay: Test B pre/postemergence soybean; type: in vivo, Glycine max
# In short: as §1
# cocklebur = assay: Test B pre/postemergence cocklebur; type: in vivo, Xanthium strumarium
# In short: as §1
# [1] = Postemergence, Rate 62 g/ha, scale 0 to 10, 0 is no effect, 10 is complete control
# [2] = Postemergence, Rate 250 g/ha, scale 0 to 10, 0 no effect, 10 complete control
# [3] = Preemergence, Rate 31 g/ha, visual rating, scale 0 to 10 (0 no effect, 10 complete control)
# [4] = Preemergence, Rate 62 g/ha, scale 0 to 10, 0 is no effect, 10 is complete control
# [5] = Preemergence, Rate 125 g/ha, scale 0 to 10 (0 no effect, 10 complete control)
# [6] = Preemergence, Rate 250 g/ha, scale of 0 to 10 where 0 is no effect and 10 is complete control
# [7] = Rate 31 g/ha, Postemergence, scale 0 to 10
# [8] = Rate 125 g/ha, Postemergence, scale 0 to 10, 0 no effect, 10 complete control
# [9] = Rate 31 g/ha, Postemergence section (flood test species), scale 0 to 10
# [10] = Rate 125 g/ha, Postemergence section (flood test species), scale 0 to 10, 0 no effect, 10 complete control
# [11] = flood test, listed under Postemergence, Rate 250 g/ha, scale 0 to 10, 0 no effect, 10 complete control
compound,measurement,setting,value
CCN(C(=O)n1oc(=O)n(-c2ccc(F)cc2F)c1=O)C1CCCCC1 [Compound 23],Blackgrass plant response rating,blackgrass; [1],0
same,Blackgrass plant response rating,blackgrass; [2],0
same,Blackgrass plant response rating,blackgrass; [3],0
same,"Plant response rating, Blackgrass",blackgrass; [4],0
same,"Plant response rating, Blackgrass",blackgrass; [5],1
same,"Plant response rating, Blackgrass",blackgrass; [6],2
same,Blackgrass plant response rating,blackgrass; [7],0
same,Blackgrass plant response rating,blackgrass; [8],0
same,Crabgrass plant response rating,crabgrass; [1],0
same,Crabgrass plant response rating,crabgrass; [2],6
same,Crabgrass plant response rating,crabgrass; [3],0
same,"Plant response rating, Crabgrass",crabgrass; [4],3
same,"Plant response rating, Crabgrass",crabgrass; [5],3
same,"Plant response rating, Crabgrass",crabgrass; [6],3
same,Crabgrass plant response rating,crabgrass; [7],0
same,Crabgrass plant response rating,crabgrass; [8],1
same,Wheat plant response rating,wheat; [1],0
same,Wheat plant response rating,wheat; [2],0
same,Wheat plant response rating,wheat; [3],0
same,"Plant response rating, Wheat",wheat; [4],0
same,"Plant response rating, Wheat",wheat; [5],0
same,"Plant response rating, Wheat",wheat; [6],0
same,Wheat plant response rating,wheat; [8],0
same,Bedstraw plant response rating,bedstraw; [1],0
same,Bedstraw plant response rating,bedstraw; [2],0
same,Bedstraw plant response rating,bedstraw; [3],0
same,"Plant response rating, Bedstraw",bedstraw; [4],0
same,"Plant response rating, Bedstraw",bedstraw; [5],0
same,"Plant response rating, Bedstraw",bedstraw; [6],0
same,Bedstraw plant response rating,bedstraw; [7],0
same,Bedstraw plant response rating,bedstraw; [8],0
same,Corn plant response rating,corn; [1],0
same,Corn plant response rating,corn; [2],0
same,Corn plant response rating,corn; [3],0
same,"Plant response rating, Corn",corn; [4],0
same,"Plant response rating, Corn",corn; [5],0
same,"Plant response rating, Corn",corn; [6],0
same,Corn plant response rating,corn; [7],0
same,Corn plant response rating,corn; [8],0
same,Ducksalad plant response rating,duck salad; [1],0
same,Ducksalad plant response rating,duck salad; [9],0
same,Ducksalad plant response rating,duck salad; [10],0
same,Ducksalad plant response rating,duck salad; [11],0
same,B. signalgrass plant response rating,surinam grass; [1],0
same,B. signalgrass plant response rating,surinam grass; [2],0
same,B. signalgrass plant response rating,surinam grass; [3],0
same,"Plant response rating, B. signalgrass",surinam grass; [4],0
same,"Plant response rating, B. signalgrass",surinam grass; [5],0
same,"Plant response rating, B. signalgrass",surinam grass; [6],0
same,B. signalgrass plant response rating,surinam grass; [7],0
same,B. signalgrass plant response rating,surinam grass; [8],0
same,S. Flatsedge plant response rating,smallflower flatsedge; [1],0
same,S. Flatsedge plant response rating,smallflower flatsedge; [10],0
same,S. Flatsedge plant response rating,smallflower flatsedge; [11],0
same,Barnyardgrass plant response rating,bamyardgrass; [1],0
same,Barnyardgrass plant response rating,bamyardgrass; [9],0
same,Barnyardgrass plant response rating,bamyardgrass; [10],0
same,Barnyardgrass plant response rating,bamyardgrass; [11],0
same,Nutsedge plant response rating,purple nutsedge; [1],0
same,Nutsedge plant response rating,purple nutsedge; [2],0
same,Nutsedge plant response rating,purple nutsedge; [3],0
same,"Plant response rating, Nutsedge",purple nutsedge; [4],0
same,"Plant response rating, Nutsedge",purple nutsedge; [5],0
same,"Plant response rating, Nutsedge",purple nutsedge; [6],0
same,Nutsedge plant response rating,purple nutsedge; [7],0
same,Nutsedge plant response rating,purple nutsedge; [8],0
same,Velvetleaf plant response rating,velvetleaf; [1],0
same,Velvetleaf plant response rating,velvetleaf; [2],0
same,Velvetleaf plant response rating,velvetleaf; [3],0
same,"Plant response rating, Velvetleaf",velvetleaf; [4],0
same,"Plant response rating, Velvetleaf",velvetleaf; [5],0
same,"Plant response rating, Velvetleaf",velvetleaf; [6],0
same,Velvetleaf plant response rating,velvetleaf; [8],0
same,Sugarbeets plant response rating,sugar beet; [1],0
same,Sugarbeets plant response rating,sugar beet; [2],0
same,Sugarbeets plant response rating,sugar beet; [3],0
same,"Plant response rating, Sugarbeets",sugar beet; [4],0
same,"Plant response rating, Sugarbeets",sugar beet; [5],0
same,"Plant response rating, Sugarbeets",sugar beet; [6],0
same,Sugarbeets plant response rating,sugar beet; [8],0
same,Rice plant response rating,rice; [1],0
same,Rice plant response rating,rice; [9],0
same,Rice plant response rating,rice; [10],0
same,Rice plant response rating,rice; [11],0
same,Wild oats plant response rating,wild oat; [1],0
same,Wild oats plant response rating,wild oat; [2],0
same,Wild oats plant response rating,wild oat; [3],0
same,"Plant response rating, Wild oats",wild oat; [5],0
same,"Plant response rating, Wild oats",wild oat; [6],0
same,Wild oats plant response rating,wild oat; [8],0
same,Soybean plant response rating,soybean; [1],3
same,Soybean plant response rating,soybean; [2],4
same,Soybean plant response rating,soybean; [3],0
same,"Plant response rating, Soybean",soybean; [4],0
same,"Plant response rating, Soybean",soybean; [5],0
same,"Plant response rating, Soybean",soybean; [6],0
same,Soybean plant response rating,soybean; [8],3
same,Cocklebur plant response rating,cocklebur; [1],0
same,Cocklebur plant response rating,cocklebur; [2],0
same,Cocklebur plant response rating,cocklebur; [3],0
same,"Plant response rating, Cocklebur",cocklebur; [4],0
same,"Plant response rating, Cocklebur",cocklebur; [5],0
same,Cocklebur plant response rating,cocklebur; [7],0
same,Cocklebur plant response rating,cocklebur; [8],0
